Earlier results, collected in patent publication US11208393B2, “Methods for extraction, processing, and purification of a selected family of target compounds from cannabis” (Nectar Health Sciences Inc., priority 2019, dated 2021).

conditions: of the protonated amine (ammonium ion)

Row | SMILES | pKa
1 | CN(C)CCO [(CH3)2NHCH2OH^+, dimethylethanolamine] | 9.3
2 | C1CN2CCN1CC2 [DABCO, 1,4-diazabicyclo[2.2.2]octane] | 8.9
3 | CN(C)CCN(C)C [TMEDA, tetramethylethylenediamine] | 9.0
